Results published in patent US5602161A, “Tetrazolylphenyl pivalate derivatives and medicinal composition containing the same as effective component” (Wakamoto Pharmaceutical Co., Ltd., priority 1994, dated 1997).
Structures can show the parent of a compound that is named as a salt.

Molecular target: T1, human sputum elastase (Homo sapiens, UniProt P08246)
T1 sequence (P08246 30-247 limits assumed): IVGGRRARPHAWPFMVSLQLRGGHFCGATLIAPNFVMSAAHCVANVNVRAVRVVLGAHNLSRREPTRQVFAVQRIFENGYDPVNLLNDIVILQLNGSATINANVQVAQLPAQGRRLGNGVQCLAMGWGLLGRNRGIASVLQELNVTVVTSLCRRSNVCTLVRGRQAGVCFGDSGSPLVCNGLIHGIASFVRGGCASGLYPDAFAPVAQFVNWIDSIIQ
Assay: Inhibitory effect on elastase (human sputum), spectrophotometric assay with MeOSuc-Ala-Ala-Pro-Val-pNA
Format: biochemical
Conditions: S: human sputum elastase; pH 8.0, 37° C.; read-out: IC50
Method: Namely, it is a spectrophotometric assay using the synthesized substrate, methoxysuccinyl-alanyl-alanyl- prolyl-valyl-p-nitroanilide(MeOSuc-Ala-Ala-Pro-Val-pNA, Cambridge research biochemical Co.) which has high specificity on neutrophil elastase.
20 μl of a test compound of various concentrations and 20 μl of enzyme solution (13 unit/ml) were added to 400 μl of 0.1M sodium phosphate buffer (pH 8.0). The mixture was incubated at 37° C. for 5 min, and then 20 μl of the substrate was added to the mixture in a final volume of 460 μl. The reaction was conducted by incubating thus obtained mixture at 37° C. for 20 min. The reaction was stopped by the addition of 300 μl of 20% acetic acid into the reaction mixture, and then p-nitroanilide released was measured by the spectrophotometrically at 405 nm.
Inhibition percents of the test compounds were calculated by the following equation:
Inhibition %=[1-(OD 405 nm value of the testing sample-background)/(OD 405 nm value of the control-background)]×100

IC50 [nM] | Compound
58 | CC(C)(C)C(=O)Oc1ccc(-c2nnn(Cc3ccc(C(=O)N[C@@H](Cc4ccccc4)C(=O)O)cc3)n2)cc1
79 | CSCCC(NC(=O)c1ccc(Cn2nnc(-c3ccc(OC(=O)C(C)(C)C)cc3)n2)cc1)C(=O)O (racemic) [Example 62, N-[4-[5-(4-Pivaloyloxyphenyl)tetrazol-2-ylmethyl]benzoyl]-DL-methionine]
2000 | CC(C)(C)C(=O)Oc1ccc(-c2nnn[nH]2)cc1 [Example 3, 4-(1H-Tetrazol-5-yl)phenyl pivalate]
230 | CN(C)c1cc(-c2nnn(Cc3ccc(C(=O)O)cc3)n2)ccc1OC(=O)C(C)(C)C [Example 8, 4-[5-(3-Dimethylamino-4-pivaloyloxyphenyl)tetrazol-2-ylmethyl]benzoic acid]
280 | CC(C)(C)C(=O)Oc1ccc(-c2nnn(Cc3ccc([N+](=O)[O-])cc3)n2)cc1 [Example 25, 4-[2-(4-Nitrobenzyl)tetrazol-5-yl]phenyl pivalate]
270 | CC(C)(C)C(=O)Oc1ccc(-c2nnn(Cc3cccc([N+](=O)[O-])c3)n2)cc1 [Example 26, 4-[2-(3-Nitrobenzyl)tetrazol-5-yl]phenyl pivalate]
90 | CC(C)(C)C(=O)Oc1ccc(-c2nnn(Cc3ccccc3[N+](=O)[O-])n2)cc1 [Example 27, 4-[2-(2-Nitrobenzyl)tetrazol-5-yl]phenyl pivalate]
220 | CC(C)(C)C(=O)Oc1ccc(-c2nnn(C(c3ccccc3)c3ccccc3)n2)cc1 [Example 28, 4-[2-(Diphenylmethyl)tetrazol-5-yl]phenyl pivalate]
100 | CC(=O)c1ccc(Cn2nnc(-c3ccc(OC(=O)C(C)(C)C)cc3)n2)cc1 [Example 29, 4-[2-(4-Acetylbenzyl)tetrazol-5-yl]phenyl pivalate]
380 | CC(C)(C)OC(=O)COc1ccccc1Cn1nnc(-c2ccc(OC(=O)C(C)(C)C)cc2)n1 [Example 30, t-Butyl 2-[5-(4-pivaloyloxyphenyl)tetrazol-2-ylmethyl]phenoxyacetate]
100 | CC(C)(C)OC(=O)COc1cccc(Cn2nnc(-c3ccc(OC(=O)C(C)(C)C)cc3)n2)c1 [Example 31, t-Butyl 3-[5-(4-pivaloyloxyphenyl)tetrazol-2-ylmethyl]phenoxyacetate]
380 | CC(C)(C)OC(=O)COc1ccc(Cn2nnc(-c3ccc(OC(=O)C(C)(C)C)cc3)n2)cc1 [Example 32, t-Butyl 4-[5-(4-pivaloyloxyphenyl)tetrazol-2-ylmethyl]phenoxyacetate]
800 | CC(C)(C)C(=O)Oc1ccc(-c2nnn(C(C)(C)C)n2)cc1 [Example 36, 4-[2-(1,1-Dimethylethyl)tetrazol-5-yl]phenyl pivalate]
800 | CN(C)CCn1nnc(-c2ccc(OC(=O)C(C)(C)C)cc2)n1 [Example 38, 4-[2-(2-Dimethylaminoethyl)tetrazol-5-yl]phenyl pivalate Hydrochloride]
130 | COc1ccc(COCCCCCn2nnc(-c3ccc(OC(=O)C(C)(C)C)cc3)n2)cc1 [Example 43, 4-[2-[5-(4-Methoxybenzyloxy)pentyl]tetrazol-5-yl]phenyl pivalate]
1700 | CC(C)(C)C(=O)Oc1ccc(-c2nnn(Cc3ccc(N4CCCC4)cc3)n2)cc1 [Example 50, 4-[2-(4-Pyrrolidinobenzyl)tetrazol-5-yl]phenyl pivalate]
350 | CC(C)(C)C(=O)Oc1ccc(-c2nnn(Cc3ccccc3C(=O)O)n2)cc1 [Example 52, 2-[5-(4-Pivaloyloxyphenyl)tetrazol-2-ylmethyl]benzoic acid]
110 | CC(C)(C)C(=O)Oc1ccc(-c2nnn(Cc3ccc(CC(=O)O)cc3)n2)cc1 [Example 53, 4-[5-(4-Pivaloyloxyphenyl)tetrazol-2-ylmethyl]phenylacetic acid]
1000 | Cc1cc(-c2nnn(Cc3ccc(C(=O)O)cc3)n2)ccc1OC(=O)C(C)(C)C [Example 55, 4-[5-(3-Methyl-4-pivaloyloxyphenyl)tetrazol-2-ylmethyl]benzoic acid]
420 | COc1cc(-c2nnn(Cc3ccc(C(=O)O)cc3)n2)ccc1OC(=O)C(C)(C)C [Example 56, 4-[5-(3-Methoxy-4-pivaloyloxyphenyl)tetrazol-2-ylmethyl]benzoic acid]
420 | C[C@H](NC(=O)c1ccc(Cn2nnc(-c3ccc(OC(=O)C(C)(C)C)cc3)n2)cc1)C(=O)O [Example 57, N-[4-[5-(4-Pivaloyloxyphenyl)tetrazol-2-ylmethyl]benzoyl]-L-alanine]

IC50 [nM] | Compound
29 | CC(C)(C)C(=O)Oc1ccc(-c2nnn(Cc3ccc(C(=O)NCC(=O)O)cc3)n2)cc1 [Example 58, N-[4-[5-(4-pivaloyloxyphenyl)tetrazol-2-ylmethyl]benzoyl]glycine]
30 | CC(C)(C)C(=O)Oc1ccc(-c2nnn(Cc3ccc(C(=O)N[C@@H](CCC(=O)O)C(=O)O)cc3)n2)cc1 [Example 61, N-[4-[5-(4-Pivaloyloxyphenyl)tetrazol-2-ylmethyl]benzoyl]-L-glutamic acid]
200 | CC(C)(C)C(=O)Oc1ccc(-c2nnn(Cc3ccc(C(=O)NCCCCCC(=O)O)cc3)n2)cc1 [Example 68, 6-[N-[4-[5-(4-Pivaloyloxyphenyl)tetrazol-2-ylmethyl]benzoyl]amino]caproic acid]
1000 | CC(C)(C)C(=O)Oc1ccc(-c2nnn(C(C(=O)NCC(=O)O)c3ccccc3)n2)cc1 (stereo not drawn) [Example 70, N-[2-Phenyl-2-[5-(4-pivaloyloxyphenyl)tetrazol-2-yl]acetyl]glycine]
260 | CC(C)(C)C(=O)Oc1ccc(-c2nnn(Cc3ccc(C(=O)NCCN)cc3)n2)cc1 [Example 71, N-(2-Aminoethyl)-4-[5-(4-pivaloyloxyphenyl)tetrazol-2-ylmethyl]benzamide Hydrochloride]
500 | CC(C)(C)C(=O)Oc1ccc(-c2nnn(CCO)n2)cc1 [Example 72, 4-[2-(2-Hydroxyethyl)tetrazol-5-yl]phenyl pivalate]
180 | CC(C)(C)C(=O)Oc1ccc(-c2nnn(Cc3ccc(N)cc3)n2)cc1 [Example 76, 4-[2-(4-Aminobenzyl)tetrazol-5-yl]phenyl pivalate]
150 | CC(C)(C)C(=O)Oc1ccc(-c2nnn(Cc3cccc(N)c3)n2)cc1 [Example 77, 4-[2-(3-Aminobenzyl)tetrazol-5-yl]phenyl pivalate]
140 | CC(C)(C)C(=O)Oc1ccc(-c2nnn(Cc3ccccc3NS(C)(=O)=O)n2)cc1 [Example 79, 4-[2-[2-(Methylsulfonylamino)benzyl]tetrazol-5-yl]phenyl pivalate]
59 | CC(C)(C)C(=O)Oc1ccc(-c2nnn(Cc3ccccc3OCC(=O)O)n2)cc1 [Example 81, 2-[5-(4-Pivaloyloxyphenyl)tetrazol-2-ylmethyl]phenoxyacetic acid]
92 | CC(C)(C)C(=O)Oc1ccc(-c2nnn(Cc3cccc(OCC(=O)O)c3)n2)cc1 [Example 82, 3-[5-(4-Pivaloyloxyphenyl)tetrazol-2-ylmethyl]phenoxyacetic acid]
84 | CC(C)(C)C(=O)Oc1ccc(-c2nnn(Cc3ccc(OCC(=O)O)cc3)n2)cc1 [Example 83, 4-[5-(4-Pivaloyloxyphenyl)tetrazol-2-ylmethyl]phenoxyacetic acid]
720 | CC(C)(C)C(=O)Oc1ccc(-c2nnn(Cc3ccccc3OCCN)n2)cc1 [Example 84, 4-[2-[2-(2-Aminoethoxy)benzyl]tetrazol-5-yl]phenyl pivalate Hydrochloride]
77 | CC(C)(C)C(=O)Oc1ccc(-c2nnn(Cc3cccc(OCCN)c3)n2)cc1 [Example 85, 4-[2-[3-(2-Aminoethoxy)benzyl]tetrazol-5-yl]phenyl pivalate Hydrochloride]
80 | CC(C)(C)C(=O)Oc1ccc(-c2nnn(Cc3ccc(OCCN)cc3)n2)cc1 [Example 86, 4-[2-[4-(2-Aminoethoxy)benzyl]tetrazol-5-yl]phenyl pivalate Hydrochloride]
58 | CC(C)(C)C(=O)Oc1ccc(-c2nnn(Cc3ccc(NC(=O)CN)cc3)n2)cc1 [Example 87, 4-[2-[4-(Glycylamino)benzyl]tetrazol-5-yl]phenyl pivalate Hydrochloride]
650 | COc1cc(-c2nnn(Cc3cccc(OCCN)c3)n2)ccc1OC(=O)C(C)(C)C [Example 88, 4-[2-[3-(2-Aminoethoxy)benzyl]tetrazol-5-yl]-2-methoxyphenyl pivalate Hydrochloride]
170 | CC(C)(C)C(=O)Oc1ccc(-c2nnn(Cc3cccc(CCCN)c3)n2)cc1 [Example 89, 4-[2-[3-(3-Aminopropyl)benzyl]tetrazol-5-yl]phenyl pivalate Hydrochloride]
110 | CNc1ccc(Cn2nnc(-c3ccc(OC(=O)C(C)(C)C)cc3)n2)cc1 [Example 90, 4-[2-(4-Methylaminobenzyl)tetrazol-5-yl]phenyl pivalate]
580 | CNc1ccc(Cn2nnnc2-c2ccc(OC(=O)C(C)(C)C)cc2)cc1 [Example 91, 4-[1-(4-Methylaminobenzyl)tetrazol-5-yl]phenyl pivalate]

Compound | IC50 [nM]
CC(C)(C)OC(=O)Cn1nnc(-c2ccc(OC(=O)C(C)(C)C)cc2)n1 [Example 10, 4-[2-(t-Butoxycarbonylmethyl)tetrazol-5-yl]phenyl pivalate] | 800
CN(C(=O)OC(C)(C)C)c1ccc(Cn2nnc(-c3ccc(OC(=O)C(C)(C)C)cc3)n2)cc1 [Example 39, 4-[2-[4-(N-t-Butoxycarbonyl-N-methylamino)benzyl]tetrazol-5-yl]phenyl pivalate] | 80
CN(C(=O)OC(C)(C)C)c1ccc(Cn2nnnc2-c2ccc(OC(=O)C(C)(C)C)cc2)cc1 [Example 40, 4-[1-[4-(N-t-Butoxycarbonyl-N-methylamino)benzyl]tetrazol-5-yl]phenyl pivalate] | 250
CC(C)(C)OC(=O)NCCn1nnc(-c2ccc(OC(=O)C(C)(C)C)cc2)n1 [Example 45, 4-[2-[2-(t-Butoxycarbonylamino)ethyl]tetrazol-5-yl]phenyl pivalate] | 130
